Tests used:
Format in all cases: cell-based
NCI-H226 cells [1] = test: NCI-H226 proliferation assay (in house); details: Homo sapiens, 120 h, 5 days, Cell TiterGlo, 20-point 1:2 dilution from 20 μM
Procedure, shortened: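 Cells in RPMI 1640 + 10% FBS, 500 per well, dosed after 24 h with 20-point 1:2 dilutions from 20 μM (final), in triplicate. After 5 days at 37 °C, 5% CO2, viability read by CellTiter-Glo luminescence.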

NCI-H226 cells [2] = test: NCI-H226 proliferation assay (Wuxi AppTec); details: Homo sapiens, 168 h, 7 days, CellTiter-Glo, top dose 10, 3-fold dilution, 9 doses
Experimental: […] Proliferation Assay (From Wuxi AppTec CO.):
Day −1: Seeding cells • (1) Equilibrate cell culture medium to 37° C. • (2) Remove and discard the culture medium. • (3) Briefly rinse the cell layer with PBS to remove all traces of serum that contains […]. • (4) Add 2-3 mL of Trypsin-EDTA solution to flask and observe cells under an inverted microscope until cell layer is dispersed. • (5) Add 6-8 mL of growth medium to terminate the digestion of Trypsin/EDTA. • (6) Centrifuge the mixture (Trypsin EDTA and the growth medium) at 1000 rpm for 5 mins. • (7) Discard the supernatant, suspend the cell precipitation with the fresh growth medium, then take 1 mL the cell suspension to count cells with Vi-cell XR cell viability analyzer. • (8) Adjust the cell density to 500 cells/well for 384-well plates. • (9) Add 50 µL/well volume cell suspension to the assay plate. • (10) Add […] media to the control columns. • (11) Incubate the plate at 37° C., 5% CO2 for overnight. Day 0: Compounds treatment • (1) Add cpds to each well by Tecan HP D300E. The top dose is […], 3-fold dilution and 9 doses. DMSO final concentration will be normalized to 0.2%. • (2) Incubate the assay plate at 37° C., 5% CO2 for 7 days. Day 7: Plate read • (1) Equilibrate the assay plate to the room temperature for nearly 30 minutes. • (2) Add […] CellTiter-Glo reagent to each well and shake the plate for 1 min, incubate 10 min and keep them from light. • (3) Detect the plate by EnVision. Data analysis:
Max: Average of the DMSO group Min: Average of medium group.

[3] = system: transcriptional activity of TEADs; test: TEAD reporter assay (MCF7 TEAD-LUC reporter cells); details: Homo sapiens, 24 hours, BrightGlo luminescence
Procedure, shortened: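 MCF7 TEAD-LUC reporter cells were plated at 5,000/well and after 24 h treated with a 20-point 1:2 series from 20 μM final, in triplicate. Luciferase was read by BrightGlo luminescence after 24 h exposure at 37 °C.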

IC50 (NCI-H226 cells [1])	IC50 (NCI-H226 cells [2])	IC50 [3]	SMILES
0.651 µM	0.151 µM	0.3 nM	C#CCC1CN(c2nccnc2Nc2ccc(C(F)(F)F)cc2)CCN1C(=O)C=C (centres unmarked) [Example 23, 1-(2-(prop-2-yn-1-yl)-4-(3-((4-(trifluoromethyl)phenyl)amino)pyrazin-2-yl)piperazin-1-yl)prop-2-en-1-one]
0.084 µM	0.028 µM	0.8 nM	C=CC(=O)N1CCN(c2nccnc2Nc2ccc(OC(F)F)cc2)CC1 [Example 35, 1-(4-(3-((4-(difluoromethoxy)phenyl)amino)pyrazin-2-yl)piperazin-1-yl)prop-2-en-1-one]
0.006 µM	0.011 µM	1 nM	C=CC(=O)N1CC=C(c2nccnc2Nc2ccc(C(F)(F)F)cn2)CC1 [Example 43, 1-(4-(3-((5-(trifluoromethyl)pyridin-2-yl)amino)pyrazin-2-yl)-3,6-dihydropyridin-1(2H)-yl)prop-2-en-1-one]
0.012 µM	0.02 µM	1.4 nM	C=CC(=O)N1CCC(c2nccnc2Nc2ccc(C(F)(F)F)cn2)CC1 [Example 44, 1-(4-(3-((5-(trifluoromethyl)pyridin-2-yl)amino)pyrazin-2-yl)piperidin-1-yl)prop-2-en-1-one]
1.63 µM	0.452 µM	0.6 nM	C=C(F)C(=O)N1CCN(c2nccnc2Nc2ccc(C(F)(F)F)nc2)CC1 [Example 46, 2-fluoro-1-(4-(3-((6-(trifluoromethyl)pyridin-3-yl)amino)pyrazin-2-yl)piperazin-1-yl)prop-2-en-1-one]
0.023 µM	0.032 µM	0.7 nM	C=CC(=O)N1CCN(c2nccnc2Nc2ccc(OC(F)(F)F)nc2)CC1 [Example 48, 1-(4-(3-((6-(trifluoromethoxy)pyridin-3-yl)amino)pyrazin-2-yl)piperazin-1-yl)prop-2-en-1-one]
0.055 µM	0.031 µM	2 nM	C=CC(=O)N1CCN(c2nccnc2Nc2ccc(OC(F)F)nc2)CC1 [Example 49, 1-(4-(3-((6-(difluoromethoxy)pyridin-3-yl)amino)pyrazin-2-yl)piperazin-1-yl)prop-2-en-1-one]
0.034 µM	0.026 µM	3.1 nM	C=CC(=O)N1CCN(c2nccnc2Nc2cnc(C(F)(F)F)c(F)c2)CC1 [Example 50, 1-(4-(3-((5-fluoro-6-(trifluoromethyl)pyridin-3-yl)amino)pyrazin-2-yl)piperazin-1-yl)prop-2-en-1-one]
0.03 µM	0.058 µM	4 nM	C=CC(=O)N1CC=C(c2nccnc2Nc2ccc(C(F)(F)F)nc2)CC1 [Example 55, 1-(4-(3-((6-(trifluoromethyl)pyridin-3-yl)amino)pyrazin-2-yl)-3,6-dihydropyridin-1(2H)-yl)prop-2-en-1-one]
1.5 µM	1.7 µM	4.8 nM	C=C(F)C(=O)N1CC(Nc2nccnc2Nc2ccc(C(F)(F)F)nc2)C1 [Example 63, 2-fluoro-1-(3-((3-((6-(trifluoromethyl)pyridin-3-yl)amino)pyrazin-2-yl)amino)azetidin-1-yl)prop-2-en-1-one]
0.079 µM	1.45 µM	2.9 nM	C=CC(=O)N1CCN(c2nccnc2NC2C3CC2C3C(F)(F)F)CC1 (centres unmarked) [Example 67, 1-(4-(3-((4-(trifluoromethyl)bicyclo[1.1.1]pentan-2-yl)amino)pyrazin-2-yl)piperazin-1-yl)prop-2-en-1-one]
0.008 µM	0.007 µM	1.3 nM	C=CC(=O)N1CCN(c2nccnc2Oc2ccc(OC(F)F)cc2)CC1 [Example 71, 1-(4-(3-(4-(difluoromethoxy)phenoxy)pyrazin-2-yl)piperazin-1-yl)prop-2-en-1-one]
0.005 µM	0.011 µM	0.52 nM	C=CC(=O)N1CCN(c2nccnc2Oc2ccc(OC(F)(F)F)cc2)CC1 [Example 72, 1-(4-(3-(4-(trifluoromethoxy)phenoxy)pyrazin-2-yl)piperazin-1-yl)prop-2-en-1-one]
0.449 µM	0.121 µM	2.4 nM	C=CC(=O)N1CC=C(c2nccnc2Oc2ccc(C(F)(F)F)cn2)CC1 [Example 74, 1-(4-(3-((5-(trifluoromethyl)pyridin-2-yl)oxy)pyrazin-2-yl)-3,6-dihydropyridin-1(2H)-yl)prop-2-en-1-one]
0.032 µM	0.009 µM	2.1 nM	C=C(F)C(=O)N1CCN(c2nccnc2Oc2ccc(C(F)(F)F)nc2)CC1 [Example 78, 2-fluoro-1-(4-(3-((6-(trifluoromethyl)pyridin-3-yl)oxy)pyrazin-2-yl)piperazin-1-yl)prop-2-en-1-one]
0.016 µM	0.011 µM	1.6 nM	C=C(F)C(=O)N1CC=C(c2nccnc2Oc2ccc(C(F)(F)F)nc2)CC1 [Example 85, 2-fluoro-1-(4-(3-((6-(trifluoromethyl)pyridin-3-yl)oxy)pyrazin-2-yl)-3,6-dihydropyridin-1(2H)-yl)prop-2-en-1-one]
0.025 µM	0.047 µM	1.4 nM	C=CC(=O)N1CCN(c2nccnc2Oc2cnc(C(F)(F)F)nc2)CC1 [Example 87, 1-(4-(3-((2-(trifluoromethyl)pyrimidin-5-yl)oxy)pyrazin-2-yl)piperazin-1-yl)prop-2-en-1-one]
0.047 µM	0.027 µM	1.9 nM	C=C(F)C(=O)N1CCN(c2nccnc2Oc2cnc(C(F)(F)F)nc2)CC1 [Example 88, 2-fluoro-1-(4-(3-((2-(trifluoromethyl)pyrimidin-5-yl)oxy)pyrazin-2-yl)piperazin-1-yl)prop-2-en-1-one]
0.164 µM	0.033 µM	1.8 nM	C=CC(=O)N1CC=C(c2nccnc2Oc2cnc(C(F)(F)F)nc2)CC1 [Example 89, 1-(4-(3-((2-(trifluoromethyl)pyrimidin-5-yl)oxy)pyrazin-2-yl)-3,6-dihydropyridin-1(2H)-yl)prop-2-en-1-one]
0.033 µM	0.031 µM	5.9 nM	C=C(F)C(=O)N1CC=C(c2nccnc2Oc2cnc(C(F)(F)F)nc2)CC1 [Example 90, 2-fluoro-1-(4-(3-((2-(trifluoromethyl)pyrimidin-5-yl)oxy)pyrazin-2-yl)-3,6-dihydropyridin-1(2H)-yl)prop-2-en-1-one]
0.018 µM	0.017 µM	0.84 nM	C=CC(=O)N1CCN(c2nccnc2OC2CCC(C(F)(F)F)CC2)CC1 (centres unmarked) [Example 94, 1-(4-(3-((4-(trifluoromethyl)cyclohexyl)oxy)pyrazin-2-yl)piperazin-1-yl)prop-2-en-1-one]
0.012 µM	0.089 µM	3.6 nM	C=CC(=O)N1CCN(c2nccnc2C(=O)c2ccc(C(F)(F)F)nc2)CC1 [Example 96, 1-(4-(3-(6-(trifluoromethyl)nicotinoyl)pyrazin-2-yl)piperazin-1-yl)prop-2-en-1-one]
0.004 µM	0.05 µM	1.1 nM	C=CC(=O)N1CCN(c2nccnc2N2CCC(C(F)(F)F)CC2)CC1 [Example 105, 1-(4-(3-(4-(trifluoromethyl)piperidin-1-yl)pyrazin-2-yl)piperazin-1-yl)prop-2-en-1-one]
0.018 µM	0.049 µM	0.7 nM	C=CC(=O)N1CCN(c2nccnc2N2CC(c3ccc(F)cc3)C2)CC1 [Example 107, 1-(4-(3-(3-(4-fluorophenyl)azetidin-1-yl)pyrazin-2-yl)piperazin-1-yl)prop-2-en-1-one]
0.067 µM	0.046 µM	3 nM	C=CC(=O)N1CCN(c2nccnc2N2CC3(CC(C(F)(F)F)C3)C2)CC1 [Example 110, 1-(4-(3-(6-(trifluoromethyl)-2-azaspiro[3.3]heptan-2-yl)pyrazin-2-yl)piperazin-1-yl)prop-2-en-1-one]
0.04 µM	0.032 µM	2.7 nM	C=CC(=O)N1CCN(c2nc(C)c(C)nc2Nc2ccc(C(F)(F)F)nc2)CC1 [Example 113, 1-(4-(5,6-dimethyl-3-((6-(trifluoromethyl)pyridin-3-yl)amino)pyrazin-2-yl)piperazin-1-yl)prop-2-en-1-one]
	0.045 µM	0.4 nM	C=CC(=O)N1CCC(n2nccc2C(=O)c2ccc(C(F)(F)F)cc2)CC1 [Example 164, 1-(4-(5-(4-(trifluoromethyl)benzoyl)-1H-pyrazol-1-yl)piperidin-1-yl)prop-2-en-1-one]

From US20250206722A1, “SMALL MOLECULE INHIBITORS OF TEA DOMAIN FAMILY MEMBERS” (The Scripps Research Institute, priority 2022, published 2025)
